Assay results as given in patent publication US8999383B2, “Compositions of GnRH related compounds and processes of preparation” (Merrion Research III Limited, priority 2008, dated 2015).
Non-standard residues stand in square brackets, D forms with d. Residues, ends and D or L forms follow the SMILES beside them. dPhe(4-NH2) = Nc1ccc(C[C@@H](N)C(=O)O)cc1; dPhe(4-Cl) = N[C@H](Cc1ccc(Cl)cc1)C(=O)O; Phe(4-NH2) = Nc1ccc(C[C@H](N)C(=O)O)cc1; d2Nal = N[C@H](Cc1ccc2ccccc2c1)C(=O)O; Lys(iPr) = CC(C)NCCCC[C@H](N)C(=O)O; d3Pal = N[C@H](Cc1cccnc1)C(=O)O

Experiment: Gelation of acyline in pH 6.8 buffer with sodium caprate and Tween 80 (filtration, reverse phase HPLC)
Format: physicochemical
Experimental: Different concentrations of acyline composition are prepared by adding acyline to pH 6.8 buffer solution either at room temperature or 37° C. All acyline solutions contain 0.6 mg/mL sodium caprate (sodium caprate is referred as C10 in the figures). All samples are centrifuged and filtered prior to analysis. Samples are analyzed by reverse phase HPLC with UV detection. 10 mg acyline is transferred into […] volumetric flask. A pH 6.8 buffer solution is preheated to 37° C. Then, 100 mL pre-heated buffer solution and 0.6 mg/mL sodium caprate is added to the flask to prepare a 0.1 mg/mL acyline sample. In a similar manner, Tween 80 is added to prepare a 0.1 mg/mL acyline solution with 1% Tween 80. Samples are shaken in a temperature controlled water bath at 37° C. 5 mL samples are taken at 1, 5, 10, 15, 20, 30 and 120 minutes after mixing acyline with the buffer solution. Samples are filtered immediately through 0.45 μm filters and the first 3 mL is discarded. Filtered samples are analyzed, undiluted, by reverse phase HPLC with UV detection. All samples are prepared in duplicate and the concentration was obtained for the analysis from the mean of the duplicates. The result of comparison of 1% and 0% Tween 80 at 0.1 mg/mL acyline sample is graphically recorded in FIG. 5. […] A similar experimental procedure as Example 4 is used to prepare acyline sample for example 5. The result of comparison of 5 mg/mL, 1 mg/mL, 0.1 mg/mL and 1% Tween in phosphate buffer containing 0.6 mg/mL of sodium caprate and 0.1 mg/mL acyline is graphically recorded in FIG. 6. […] A similar experimental procedure as Example 4 is used to prepare acyline sample for example 6. The result of comparison of 1% and 1 mg/mL Tween 80 in 0.1 and 0.01 mg/mL acyline sample is graphically recorded in FIG. 7. […] A similar experimental procedure as Example 4 is used to prepare acyline sample for example 7. The result of comparison of 0.01 mg/mL acyline samples having 0.1%, 0.5% and 1% Tween 80 is graphically recorded in FIG. 8.

gelation of acyline (0.01 mg/mL acyline sample, 1% Tween 80 (versus 0.1% and 0.5%)): significantly reduces the gelation
gelation of acyline (0.1 mg/mL acyline, pH 6.8 buffer, 37° C., 0.6 mg/mL sodium caprate alone (below CMC), 0% Tween 80): insufficient to reduce the gelation
gelation of acyline (0.1 mg/mL and 0.01 mg/mL acyline sample, 1% Tween 80): reduces gelation
SMILES: CC(=O)Nc1ccc(C[C@H](NC(=O)[C@H](CO)NC(=O)[C@@H](Cc2cccnc2)NC(=O)[C@@H](Cc2ccc(Cl)cc2)NC(=O)[C@@H](Cc2ccc3ccccc3c2)NC(C)=O)C(=O)N[C@H](Cc2ccc(NC(C)=O)cc2)C(=O)N[C@@H](CC(C)C)C(=O)N[C@@H](CCCCNC(C)C)C(=O)N2CCC[C@H]2C(=O)N[C@H](C)C(N)=O)cc1 [acyline, Ac-D2Nal-D4Cpa-D3Pal-Ser4Aph(Ac)-D4Aph(Ac)-Leu-ILys-Pro-DAla-NH2] (Ac-[d2Nal][dPhe(4-Cl)][d3Pal]S[Phe(4-NH2)](Ac)[dPhe(4-NH2)](Ac)L[Lys(iPr)]P[dA]-NH2)
